# Assay results: patent US9914732B2, “Diazabicyclo[4.3.1]decane derivatives for treatment of psychiatric disorders” (Max-Planck-Gesellschaft zur Forderung der Wissenschaften …, priority 2014, dated 2018)
# System: N2a cells
# Test: N2a cellular assay (neurite outgrowth)
# Format: cell-based
# Conditions: N2a neuroblastoma cells, FIG. 1
# Method: FK506 analogs have repeatedly been described as neuroprotective and […] agents in the prior arts.
# Example 12: N2a Cellular Assay
# At day one N2a cells were plated into 24-well plates with cover slips (pretreated with polylysine) at a density of 35,000 cells/well and cultured with DMEM (incl. FCS 10% and Pen/Strep 1%) for 24 h. Next, cells were transfected with 80 ng expression plasmids encoding Venus as well as 720 ng pRK5 (mock transfection) in a total volume of 500 μl starvation media containing different concentrations of compounds or DMSO for 36 h (media without FCS; induction of neurite outgrowth). Therefore media was removed and replaced by 400 μl DMEM (empty). Next an equivalent volume of plasmids were given to 50 μl OPTIMEM and incubated for 5 min at RT. Additionally 1.5 μl Lipofectamine 2000 was separately dissolved in 50 μl OPTIMEM. After 5 min both solutions (plasmids and Lipofectamine 2000 containing media) were combined and incubated again for another 20 min. After that 100 μl of this mixture was given to 400 μl media per well. (See also protocol of the provider—Life Technologies).
# On the next day cells were washed with PBS and incubated for 30 min with 300 μl PFA (4%) and sucrose (5%) to fix cells. After fixation cells were washed three times, mounted onto microscope slides using 4 μl Vectashield (mounting media) and analyzed by fluorescence microscopy. […]
compound,measurement,value
"COc1ccc(OCCN2C[C@H]([C@H](O)CO)C3CCCC(C2=O)N3S(=O)(=O)c2cc(Cl)cc(Cl)c2)cc1OC (stereo partly drawn) [Compound C2a, (1S,5S,6R)-10-((3,5-dichlorophenyl)sulfonyl)-5-(1,2-dihydroxyethyl)-3-(2-(3,4-dimethoxyphenoxy)ethyl)-3, 10-diazabicyclo[4.3.1]decan-2-one]",neurite outgrowth,potently enhanced neurite outgrowth
